In patent US5274141A, “Designed quinone- and hydroquinone-containing cyclic enediyneols and enediyneones having DNA cleaving and cytotoxic properties” (The Scripps Research Institute, priority 1992, dated 1993):
pIC50: −log10 of the molar value. Read-outs that look alike come from different tables or passages of the source.

Columns and labels:
[1] = tested on: Normal Human Dermal Fibroblast (NHDF); assay: Sulforhodamine B cytotoxicity assay, NHDF; type: cell-based; details: for toxicity to NHDF cells compared: compared with well known anticancer drugs
From the text: (§1) In addition to the DNA cleavage screening already discussed, several of the before-described compounds were screened against a panel of twelve cancerous cell lines as target cells and four "normal" cell preparations. This screening utilized a sulforhodamine B cytotoxicity assay as discussed below.
(§2) SULFORHODAMINE B CYTOTOXICITY ASSAY
(§3) 1. Preparation of target cells in 96-well plates
(§4) 2. Preparation of sample drugs and toxic control
(§5) 3. Addition of Sample Drugs, Compounds and Controls to 96-well Plates
(§6) f. Incubate (37° C., 5-10 percent CO2 in humidified incubator) plates for a total of 72 hours. Check plates at 24 hour intervals microscopically for signs of cytotoxicity.
(§7) IC50 values; i.e., the concentration of Compound required to kill one-half of the treated cells, where then calculated.
(§8) The cell lines assayed are listed below along with their respective sources:
(§9) Separate control studies were also carried out using the following well known anticancer drugs with the following IC50 values for NHDF and cancer cells.

[2] = tested on: Human Mammary Epithelial Cells (HMEC); assay: Sulforhodamine B cytotoxicity assay, HMEC; type: cell-based; details: normal, 72 hours
From the text: as §1, §2, §3, §4, §5, §6, §7
(§10) The cell lines assayed are listed below along with their respective sources: […]

[3] = tested on: Normal Human Epidermal Keratinocytes (NHEK); assay: Sulforhodamine B cytotoxicity assay, NHEK; type: cell-based; details: 72 hours
From the text: as §1, §2, §3, §4, §5, §6, §7, §10

[4] = tested on: Chinese Hamster Ovary (CHO); assay: Sulforhodamine B cytotoxicity assay, CHO; type: cell-based; details: Cricetulus griseus, normal, 72 hours
From the text: as §1, §2, §3, §4, §5, §6, §7, §10

SK-Mel-28 (Melanoma) = assay: Sulforhodamine B cytotoxicity assay, SK-Mel-28; type: cell-based; details: Homo sapiens, 72 hours
From the text: as §1, §2, §3, §4, §5, §6, §7, §10

[5] = tested on: Capan-1 (Pancreatic Carcinoma); assay: Sulforhodamine B cytotoxicity assay, Capan-1; type: cell-based; details: Homo sapiens, 72 hours
From the text: as §1, §2, §3, §4, §5, §6, §7, §10

H-322 (Lung Carcinoma) = assay: Sulforhodamine B cytotoxicity assay, H-322; type: cell-based; details: Homo sapiens, NCI-H322, 72 hours
From the text: as §1, §2, §3, §4, §5, §6, §7, §10

[6] = tested on: UCLA P-3 (Lung Carcinoma); assay: Sulforhodamine B cytotoxicity assay, UCLA P-3; type: cell-based; details: Homo sapiens, 72 hours
From the text: as §1, §2, §3, §4, §5, §6, §7, §10

MCF-7 (Breast Carcinoma) = assay: Sulforhodamine B cytotoxicity assay, MCF-7; type: cell-based; details: Homo sapiens, MCF7, 72 hours
From the text: as §1, §2, §3, §4, §5, §6, §7, §10

[7] = tested on: Ovcar-3 (Ovarian Carcinoma); assay: Sulforhodamine B cytotoxicity assay, Ovcar-3; type: cell-based; details: Homo sapiens, 72 hours
From the text: as §1, §2, §3, §4, §5, §6, §7, §10

HT-29 (Colon Carcinoma) = assay: Sulforhodamine B cytotoxicity assay, HT-29; type: cell-based; details: Homo sapiens, 72 hours
From the text: as §1, §2, §3, §4, §5, §6, §7, §10

[8] = tested on: SIHA (Cervical Carcinoma); assay: Sulforhodamine B cytotoxicity assay, SIHA; type: cell-based; details: Homo sapiens, 72 hours
From the text: as §1, §2, §3, §4, §5, §6, §7, §10

786-0 (Renal Carcinoma) = assay: Sulforhodamine B cytotoxicity assay, 786-0; type: cell-based; details: Homo sapiens, 72 hours
From the text: as §1, §2, §3, §4, §5, §6, §7, §10

[9] = tested on: HL-60 (Promyeocytic Leukemia); assay: Sulforhodamine B cytotoxicity assay, HL-60; type: cell-based; details: Homo sapiens, 72 hours
From the text: as §1, §2, §3, §4, §5, §6, §7, §10

Molt-4 (T-Cell Leukemia) = assay: Sulforhodamine B cytotoxicity assay, Molt-4; type: cell-based; details: Homo sapiens
From the text: as §1, §2, §3, §4, §5, §6, §7, §10

Cancer Cells = assay: cells; type: cell-based, human or mouse; details: variety of cell lines, in words
From the text: as §1, §2, §3, §4, §5, §6, §7, §8, §9

φX174 form I DNA = assay: Cleavage of cell-free supercoiled DNA, agarose gel electrophoresis; type: biochemical; details: pH 7.4, 37° C., 15 hours
Description: FIG. 1 is a photograph of an ethidium bromide stained 1 percent agarose electrophoresis gel o that illustrates the cleavage of .phi.X174 form I DNA (100 μM base pairs) by Compounds 7, 8, 9, 10 and 12 at 50-5000 μM after 15 hours at 37° C. at a pH value of 7.4 in 50 […]. […] Lanes 2-10 correspond to the following: Lane 2: Compound 12 (100 μM); Lane 3: Compound 10 (100 μM); Lane 4: Compound 7 (100 μM); Lane 5: Compound 8 (100 μM); Lanes 6-10: Compound 9 (50, 100, 500, 1000 and 5000 μM). Forms I, II and III shown to the left of the photograph show the relative migrations of supercoiled (form I) relaxed (form II) and linear (form III) DNA, respectively.
To a vial containing 9 microliters of a cell-free .phi.X174 Type I double-stranded DNA in pH 7.4 […] Tris-HCl buffer was added 1 microliter of a 1.0 millimolar or other appropriate ethanol solution of Compounds 7, 8, 9, 10 and 12.
The vials were then placed in a 37° C. oven for 15 hours. A 2.0 microliter portion of glycerol loading buffer solution containing bromothymol blue indicator was added to each vial. A 10 microliter aliquot was then drawn from each. Gel electrophoresis analysis of the aliquots was performed using a 1.0 percent agarose gel with ethidium bromide run at 115 volts for one hour. DNA cleavage was indicated by the formation of Type II DNA, which was detected by visual inspection of the gel under 310 nanometer ultraviolet light.

[10] = Cycloaromatization studies using 1,4-cyclohexadiene in toluene; type: physicochemical; details: for half life (t1/2) of cycloaromatization: 55° C., 1,4-cyclohexadiene in toluene
From the text: These reactions provided Compounds 11-13 as shown schematically in Scheme 2, below. [drawing 9]

P-388 (Mouse Leukemia) = assay: Sulforhodamine B cytotoxicity assay, P-388; type: cell-based; details: P388, 72 hours
From the text: as §1, §2, §3, §4, §5, §6, §7, §10

[11] = Stability observed during synthesis; type: physicochemical
Description: Finally, PCC oxidation (4.0 equivalents PCC, 4Å molecular sieves in CH2 Cl2 at 25° C. for 0.5 hour) of Compound 8 afforded the tricarbonyl Compound 10 in 49 percent yield as step i.

[12] = Homo sapiens, normal, 72 hours, read-out: IC50 Values
[13] = MOLT-4, 72 hours, read-out: IC50 Values
[14] = Molt-4 leukemia cells, read-out: IC50

Structure (SMILES) | pIC50 [1, 12] | toxicity to NHDF cells compared [1] | pIC50 [2] | pIC50 [3] | pIC50 [4] | pIC50 (SK-Mel-28 (Melanoma)) | pIC50 [5] | pIC50 (H-322 (Lung Carcinoma)) | pIC50 [6] | pIC50 (MCF-7 (Breast Carcinoma)) | pIC50 [7] | pIC50 (HT-29 (Colon Carcinoma)) | pIC50 [9] | pIC50 (Molt-4 (T-Cell Leukemia); [13]) | pIC50 (Molt-4 (T-Cell Leukemia); [14]) | DNA cleaving activity (φX174 form I DNA) | half life (t1/2) of cycloaromatization [10] | pIC50 (P-388 (Mouse Leukemia)) | other results
COC1=C(C(=O)O)[C@H](C)[C@@]23O[C@]24c2cc(O)c5c(c2N[C@H]3C#C/C=C\C#C[C@H]14)C(=O)c1c(O)ccc(O)c1C5=O [Dynemicin A, reference compound] |  |  |  |  |  |  |  |  |  |  |  |  |  |  |  |  |  |  | pIC50 ([1]; control anticancer drugs, read-out: Range of Average IC50 Values, NHDF): 8.00
CC1=C(C)C(=O)C2=C(C#CCCCC(=O)C#C2)C1=O [Compound 10] | 4.00 | less toxic than those well known anticancer drugs against the NHDF cells | 4.00 | 4.00 | 4.00 | 4.00 | 4.00 | 4.00 | 4.30 | 4.89 | 4.60 | 4.30 | 4.60 | 5.92 | 6.00 | significant DNA damaging properties | 0.533 h |  | pIC50 [8]: 4.89; pIC50 (786-0 (Renal Carcinoma)): 4.30; potency in cytotoxicity studies (Cancer Cells): most impressive results; reactivity in cycloaromatization studies ([10]; series 7-10): most reactive member of the series 7-10
Cc1c(C)c(O)c2c(c1O)C#CCCCC(O)C#C2 (stereo not shown) [Compound 9] | 4.60 |  | 4.60 | 4.89 | 4.89 | 4.60 | 4.89 | 4.60 | 4.60 | 4.60 | 4.60 | 4.60 | 5.80 | 4.30 |  | significant DNA damaging properties |  | 5.51 | cycloaromatization behaviour ([10]; 110° C., 1,4-cyclohexadiene in toluene): complicated kinetics due to ease of conversion to Compound 8 even under oxygen extrusion conditions, but seems quite stable prior to oxidation; air sensitivity [11]: air-sensitive; stability ([11]; neutral conditions): relatively stable
CN(Cc1cnc2nc(N)nc(N)c2n1)c1ccc(C(=O)N[C@@H](CCC(=O)O)C(=O)O)cc1 [Methotrexate, reference compound] |  |  |  |  |  |  |  |  |  |  |  |  |  |  |  |  |  |  | pIC50 ([1]; Homo sapiens, control anticancer drugs, read-out: Range of Average IC50 Values, NHDF): 4.30
CC1=C(C)C(=O)C2=C(C#CCCCC(O)C#C2)C1=O (stereo not shown) [Compound 8] | 5.51 | similarly toxic to the normal NHDF and cancer cells except Molt-4 cells | 5.51 | 5.51 | 5.49 | 5.20 | 5.51 | 4.89 | 5.20 | 5.20 | 5.20 | 5.20 | 5.11 | 7.00 | 6.30 | significant DNA damaging properties | 2.6 h | 5.70 | thermal stability [11]: thermally labile
CC1=C(C)C(=O)c2cc3c(cc2C1=O)CCCC3O (stereo not shown) [Compound 12] |  |  |  |  |  |  |  |  |  |  |  |  |  |  |  | minor activity |  |  | 
